Measurements published in ChEMBL document CHEMBL4334471, “Discovery of 1,8-disubstituted-[1,2,3]triazolo[4,5-c]quinoline derivatives as a new class of Hippo signaling pathway inhibitors” (Bioorg Med Chem Lett, 2019).

What was measured:
Mus musculus = species: Mus musculus; experiment: Inhibition of mouse Arg M982V/A562 mutant (27 to end residues) assessed as residual activity at 10 uM using EAIYAAPFAKKK as substrate incubated for 40 mins in presence of [gamma-33ATP] by scintillation counting based radiometry assay relative to control
[1] = biological target: Tyrosine-protein kinase BTK (Homo sapiens) (UniProt Q06187); experiment: Inhibition of recombinant full length human BTK assessed as residual activity at 10 uM using KVEKIGEGTYGVVYK substrate incubated for 40 mins in presence of [gamma-33ATP] by scintillation counting based radiometry assay relative to control
[2] = biological target: Cyclin-dependent kinase 14/Cyclin-Y (Homo sapiens) (UniProt O94921+Q8ND76); experiment: Inhibition of recombinant full length human CDK14/cyclinY assessed as residual activity at 10 uM in presence of [gamma-33ATP] by scintillation counting based radiometry assay relative to control; assay type: protein-complex assay
[3] = biological target: Cyclin-dependent kinase-like 1 (Homo sapiens) (UniProt Q00532); experiment: Inhibition of recombinant full length human CDKL1 assessed as residual activity at 10 uM using RRRFRPASPLRGP as substrate incubated for 120 mins in presence of [gamma-33ATP] by scintillation counting based radiometry assay relative to control
[4] = biological target: Cyclin-dependent kinase-like 2 (Homo sapiens) (UniProt Q92772); experiment: Inhibition of recombinant full length human CDKL2 assessed as residual activity at 10 uM in presence of [gamma-33ATP] by scintillation counting based radiometry assay relative to control
[5] = biological target: Cyclin-dependent kinase-like 4 (Homo sapiens) (UniProt Q5MAI5); experiment: Inhibition of recombinant full length human CDKL4 assessed as residual activity at 10 uM in presence of [gamma-33ATP] by scintillation counting based radiometry assay relative to control
[6] = biological target: Mast/stem cell growth factor receptor Kit (Homo sapiens) (UniProt P10721); experiment: Inhibition of recombinant human C-Kit (544 to end residues) using poly(Glu, Tyr) 4:1 as substrate assessed as residual activity at 10 uM in presence of [gamma-33ATP] by scintillation counting based radiometry assay relative to control
[7] = biological target: Serine/threonine-protein kinase DCLK3 (Homo sapiens) (UniProt Q9C098); experiment: Inhibition of recombinant human DCAMKL3 (345 to end residues) assessed as residual activity at 10 uM using KKLNRTLSFAEPG as substrate at 40 mins in presence of [gamma-33ATP] by scintillation counting based radiometry assay relative to control
[8] = biological target: G protein-coupled receptor kinase 3 (Homo sapiens) (UniProt P35626); experiment: Inhibition of recombinant full length human GRK3 assessed as residual activity at 10 uM using casein as substrate at 40 mins in presence of [gamma-33ATP] by scintillation counting based radiometry assay relative to control
[9] = biological target: Serine/threonine-protein kinase/endoribonuclease IRE1 (Homo sapiens) (UniProt O75460); experiment: Inhibition of human IRE1 (465 to end residues) assessed as residual activity at 10 uM using myelin basic protein as substrate after 40 mins by [gamma-33ATP] radiometric assay relative to control
[10] = biological target: MAP/microtubule affinity-regulating kinase 3 (Homo sapiens) (UniProt P27448); experiment: Inhibition of recombinant full length human MARK3 assessed as residual activity at 10 uM using KKKVSRSGLYRSPSMPENLNRPR as substrate incubated for 40 mins in presence of [gamma-33ATP by scintillation counting based radiometry assay relative to control
[11] = biological target: Mitogen-activated protein kinase kinase kinase 2 (Homo sapiens) (UniProt Q9Y2U5); experiment: Inhibition of recombinant full length human MEKK2 assessed as residual activity at 10 uM using myelin basic protein as substrate incubated for 40 mins in presence of [gamma-33ATP by scintillation counting based radiometry assay relative to control
[12] = biological target: Ribosomal protein S6 kinase alpha-5 (Homo sapiens) (UniProt O75582); experiment: Inhibition of recombinant human MSK1 (2 to end residues) assessed as residual activity at 10 uM using GRPRTSSFAEGKK as substrate incubated for 40 mins in presence of [gamma-33ATP by scintillation counting based radiometry assay relative to control
[13] = biological target: Serine/threonine-protein kinase 24 (Homo sapiens) (UniProt Q9Y6E0); experiment: Inhibition of recombinant human MST3 (1 to 304 residues) assessed as residual activity at 10 uM using ERMRPRKRQGSVR as substrate measured after 40 mins in presence of [gamma33P]ATP by scintillation counting based radiometry assay relative to control
[14] = biological target: Ribosomal protein S6 kinase alpha-3 (Homo sapiens) (UniProt P51812); experiment: Inhibition of recombinant human Rsk2 (2 to end residues) assessed as residual activity at 10 uM using KKKNRTLSVA as substrate incubated for 40 mins in presence of [gamma33P]ATP by scintillation counting based radiometry assay relative to control
[15] = biological target: Mitogen-activated protein kinase 11 (Homo sapiens) (UniProt Q15759); experiment: Inhibition of recombinant human full length SAPK2b assessed as residual activity at 10 uM using myelin basic protein as substrate incubated for 40 mins in presence of [gamma33P]ATP by scintillation counting based radiometry assay relative to control
[16] = biological target: Serine/threonine-protein kinase SBK1 (Homo sapiens) (UniProt Q52WX2); experiment: Inhibition of recombinant full-length human SBK1 assessed as residual activity at 10 uM using KKLRRTLSVA as substrate incubated for 120 mins in presence of [gamma33P]ATP by scintillation counting based radiometry assay relative to control
[17] = biological target: Serine/threonine-protein kinase 32C (Homo sapiens) (UniProt Q86UX6); experiment: Inhibition of recombinant human full length STK32C assessed as residual activity at 10 uM using casein as substrate incubated for 40 mins in presence of [gamma33P]ATP by scintillation counting based radiometry assay relative to control
[18] = system: TGF-beta receptor type-1 (Homo sapiens), P36897 [T204D]; experiment: Inhibition of recombinant human TGFBR1 T204D mutant (200 to end residues) assessed as residual activity at 10 uM using casein as substrate incubated for 40 mins in presence of [gamma33P]ATP by scintillation counting based radiometry assay relative to control
[19] = system: Angiopoietin-1 receptor (Homo sapiens), Q02763 [Q939H,Q940H]; experiment: Inhibition of recombinant human TIE2 Q939H/Q940H mutant (771 to end residues) assessed as residual activity at 10 uM using EFPIYDFLPAKKK as substrate incubated for 40 mins in presence of [gamma33P]ATP by scintillation counting based radiometry assay relative to control
[20] = biological target: Phosphatidylinositol 4-phosphate 5-kinase type-1 alpha (Homo sapiens) (UniProt Q99755); experiment: Inhibition of recombinant full-length human PIP5K1alpha assessed as residual activity at 10 uM using phosphatidylinositol 5-phosphate as substrate by HTRF assay relative to control
[21] = biological target: Casein kinase II subunit alpha' (Homo sapiens) (UniProt P19784); experiment: Inhibition of recombinant full length human CK2alpha2 assessed as residual activity at 10 uM using RRRDDDSDDD as substrate incubated 40 mins in presence of [gamma-33ATP] by scintillation counting based radiometry assay relative to control
Chain of Casein kinase II subunit alpha' (Homo sapiens) (P19784 whole entry, looked up): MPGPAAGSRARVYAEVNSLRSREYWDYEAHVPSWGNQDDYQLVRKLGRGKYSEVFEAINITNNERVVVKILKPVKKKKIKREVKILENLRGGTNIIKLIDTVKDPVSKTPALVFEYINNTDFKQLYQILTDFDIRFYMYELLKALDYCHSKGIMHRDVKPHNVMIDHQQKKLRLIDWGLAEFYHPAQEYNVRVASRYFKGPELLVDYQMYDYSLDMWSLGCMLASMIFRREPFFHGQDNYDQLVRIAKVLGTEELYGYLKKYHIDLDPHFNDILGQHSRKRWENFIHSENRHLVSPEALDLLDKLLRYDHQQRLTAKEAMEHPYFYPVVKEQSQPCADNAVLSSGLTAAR

Chain of Cyclin-dependent kinase-like 4 (Homo sapiens) (Q5MAI5 whole entry): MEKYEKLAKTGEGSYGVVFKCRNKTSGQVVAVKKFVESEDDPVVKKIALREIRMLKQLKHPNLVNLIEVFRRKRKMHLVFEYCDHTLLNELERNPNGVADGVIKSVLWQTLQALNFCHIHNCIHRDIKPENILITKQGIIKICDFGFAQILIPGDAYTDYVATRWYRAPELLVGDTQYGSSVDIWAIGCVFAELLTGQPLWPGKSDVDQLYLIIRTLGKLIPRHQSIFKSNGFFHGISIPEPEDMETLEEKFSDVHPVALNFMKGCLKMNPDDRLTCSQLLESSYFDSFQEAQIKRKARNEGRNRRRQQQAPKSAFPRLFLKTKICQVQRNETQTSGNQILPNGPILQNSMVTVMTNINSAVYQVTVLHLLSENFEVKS
Chain of Cyclin-dependent kinase-like 2 (Homo sapiens) (Q92772 whole entry): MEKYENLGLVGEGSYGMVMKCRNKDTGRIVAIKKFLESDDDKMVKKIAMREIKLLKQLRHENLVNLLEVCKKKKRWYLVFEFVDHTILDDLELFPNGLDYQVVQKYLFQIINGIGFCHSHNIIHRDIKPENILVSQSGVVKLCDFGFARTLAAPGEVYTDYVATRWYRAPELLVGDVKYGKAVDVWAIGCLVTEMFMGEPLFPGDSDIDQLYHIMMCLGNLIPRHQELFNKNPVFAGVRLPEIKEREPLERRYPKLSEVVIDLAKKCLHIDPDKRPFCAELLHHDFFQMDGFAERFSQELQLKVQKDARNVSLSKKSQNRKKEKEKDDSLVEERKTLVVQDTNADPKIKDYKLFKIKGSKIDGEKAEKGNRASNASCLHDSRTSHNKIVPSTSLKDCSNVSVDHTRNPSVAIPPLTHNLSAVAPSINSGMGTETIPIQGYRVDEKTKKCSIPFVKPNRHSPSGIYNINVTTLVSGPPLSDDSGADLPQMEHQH
Chain of Mitogen-activated protein kinase 11 (Homo sapiens) (Q15759 whole entry): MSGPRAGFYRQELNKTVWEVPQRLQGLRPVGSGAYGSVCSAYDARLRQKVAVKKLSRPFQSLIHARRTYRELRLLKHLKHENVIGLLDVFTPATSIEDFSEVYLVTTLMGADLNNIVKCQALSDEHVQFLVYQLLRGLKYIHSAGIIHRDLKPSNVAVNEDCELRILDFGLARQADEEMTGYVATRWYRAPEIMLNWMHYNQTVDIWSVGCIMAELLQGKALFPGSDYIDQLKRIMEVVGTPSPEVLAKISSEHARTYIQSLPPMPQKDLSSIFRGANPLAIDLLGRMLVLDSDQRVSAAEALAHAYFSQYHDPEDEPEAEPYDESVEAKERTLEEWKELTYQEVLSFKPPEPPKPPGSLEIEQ
Chain of Serine/threonine-protein kinase 32C (Homo sapiens) (Q86UX6 whole entry): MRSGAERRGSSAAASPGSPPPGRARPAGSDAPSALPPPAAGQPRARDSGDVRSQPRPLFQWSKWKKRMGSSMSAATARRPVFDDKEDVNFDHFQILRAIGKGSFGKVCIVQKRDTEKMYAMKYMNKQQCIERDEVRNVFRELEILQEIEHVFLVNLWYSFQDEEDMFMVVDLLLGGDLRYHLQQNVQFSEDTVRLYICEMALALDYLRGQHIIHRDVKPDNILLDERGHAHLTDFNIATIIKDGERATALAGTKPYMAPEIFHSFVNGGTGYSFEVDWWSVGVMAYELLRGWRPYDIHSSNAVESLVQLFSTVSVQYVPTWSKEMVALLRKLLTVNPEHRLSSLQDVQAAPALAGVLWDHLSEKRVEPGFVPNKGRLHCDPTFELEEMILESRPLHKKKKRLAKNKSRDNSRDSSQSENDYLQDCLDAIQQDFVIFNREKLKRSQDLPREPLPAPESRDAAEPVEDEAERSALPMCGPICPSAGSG
Chain of Mast/stem cell growth factor receptor Kit (Homo sapiens) (P10721 whole entry): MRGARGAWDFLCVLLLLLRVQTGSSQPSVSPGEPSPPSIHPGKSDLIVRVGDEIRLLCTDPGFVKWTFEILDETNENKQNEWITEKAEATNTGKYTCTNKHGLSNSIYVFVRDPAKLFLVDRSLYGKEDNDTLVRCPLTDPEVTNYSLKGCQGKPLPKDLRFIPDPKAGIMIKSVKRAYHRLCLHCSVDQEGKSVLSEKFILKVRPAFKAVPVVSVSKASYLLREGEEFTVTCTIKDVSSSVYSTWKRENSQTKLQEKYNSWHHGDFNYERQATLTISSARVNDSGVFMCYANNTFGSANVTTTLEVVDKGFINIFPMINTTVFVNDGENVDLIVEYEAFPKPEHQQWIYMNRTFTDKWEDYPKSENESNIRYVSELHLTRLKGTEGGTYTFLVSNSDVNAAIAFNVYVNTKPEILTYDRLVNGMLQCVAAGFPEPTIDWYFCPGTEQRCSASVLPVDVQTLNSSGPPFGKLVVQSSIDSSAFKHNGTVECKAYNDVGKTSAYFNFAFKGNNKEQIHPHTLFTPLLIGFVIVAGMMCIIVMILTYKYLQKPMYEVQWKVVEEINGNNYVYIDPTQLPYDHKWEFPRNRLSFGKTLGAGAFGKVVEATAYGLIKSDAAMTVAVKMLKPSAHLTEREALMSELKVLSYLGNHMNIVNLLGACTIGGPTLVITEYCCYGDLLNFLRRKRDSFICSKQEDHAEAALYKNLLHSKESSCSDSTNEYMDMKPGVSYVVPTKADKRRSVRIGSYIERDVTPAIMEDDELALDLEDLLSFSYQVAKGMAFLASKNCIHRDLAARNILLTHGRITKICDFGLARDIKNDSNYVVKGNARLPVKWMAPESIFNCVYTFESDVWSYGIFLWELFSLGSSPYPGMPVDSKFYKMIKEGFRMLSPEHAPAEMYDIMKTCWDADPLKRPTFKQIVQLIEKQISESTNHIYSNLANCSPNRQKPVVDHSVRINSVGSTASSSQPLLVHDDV
Chain of Angiopoietin-1 receptor (Homo sapiens), Q02763 [Q939H,Q940H] (Q02763 whole entry Q939H/Q940H): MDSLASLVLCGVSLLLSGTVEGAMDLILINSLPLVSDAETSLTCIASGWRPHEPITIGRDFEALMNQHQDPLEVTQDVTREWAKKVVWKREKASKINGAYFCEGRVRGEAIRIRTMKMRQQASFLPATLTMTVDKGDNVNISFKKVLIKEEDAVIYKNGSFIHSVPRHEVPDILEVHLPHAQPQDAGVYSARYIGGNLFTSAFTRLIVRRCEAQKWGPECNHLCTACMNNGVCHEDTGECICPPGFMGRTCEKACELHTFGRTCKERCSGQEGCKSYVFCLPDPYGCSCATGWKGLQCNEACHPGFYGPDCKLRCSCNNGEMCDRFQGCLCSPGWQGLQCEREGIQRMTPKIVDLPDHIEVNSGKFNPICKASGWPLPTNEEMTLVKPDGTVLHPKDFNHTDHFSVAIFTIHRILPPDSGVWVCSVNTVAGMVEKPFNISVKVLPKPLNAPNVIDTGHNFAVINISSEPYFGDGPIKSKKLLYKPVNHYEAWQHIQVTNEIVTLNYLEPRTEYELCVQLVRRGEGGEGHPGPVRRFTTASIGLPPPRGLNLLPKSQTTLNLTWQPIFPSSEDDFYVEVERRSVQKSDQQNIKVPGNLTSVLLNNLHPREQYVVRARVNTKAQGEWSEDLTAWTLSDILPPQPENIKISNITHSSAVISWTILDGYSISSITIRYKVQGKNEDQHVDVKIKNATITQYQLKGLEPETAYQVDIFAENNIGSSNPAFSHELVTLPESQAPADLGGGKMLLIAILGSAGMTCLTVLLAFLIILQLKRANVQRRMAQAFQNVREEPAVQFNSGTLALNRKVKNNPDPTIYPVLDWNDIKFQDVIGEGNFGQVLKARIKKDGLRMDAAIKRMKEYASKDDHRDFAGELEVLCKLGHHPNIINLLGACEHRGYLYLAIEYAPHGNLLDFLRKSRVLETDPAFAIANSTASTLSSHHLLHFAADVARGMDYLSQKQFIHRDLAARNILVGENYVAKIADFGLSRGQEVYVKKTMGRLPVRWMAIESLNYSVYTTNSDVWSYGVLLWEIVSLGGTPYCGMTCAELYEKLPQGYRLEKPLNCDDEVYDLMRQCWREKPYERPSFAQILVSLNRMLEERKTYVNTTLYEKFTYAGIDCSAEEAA
Chain of Cyclin-dependent kinase-like 1 (Homo sapiens) (Q00532 whole entry): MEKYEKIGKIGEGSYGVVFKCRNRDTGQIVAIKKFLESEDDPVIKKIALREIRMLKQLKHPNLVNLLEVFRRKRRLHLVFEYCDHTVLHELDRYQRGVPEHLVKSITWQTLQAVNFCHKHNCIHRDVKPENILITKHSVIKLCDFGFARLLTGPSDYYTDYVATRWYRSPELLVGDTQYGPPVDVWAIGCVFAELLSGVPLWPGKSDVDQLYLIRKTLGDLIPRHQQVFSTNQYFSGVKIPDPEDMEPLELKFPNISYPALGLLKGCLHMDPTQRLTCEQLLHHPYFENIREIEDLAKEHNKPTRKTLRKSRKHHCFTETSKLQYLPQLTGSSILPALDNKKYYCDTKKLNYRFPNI
Chain of Serine/threonine-protein kinase 24 (Homo sapiens) (Q9Y6E0 whole entry, looked up, the tested form may be a part): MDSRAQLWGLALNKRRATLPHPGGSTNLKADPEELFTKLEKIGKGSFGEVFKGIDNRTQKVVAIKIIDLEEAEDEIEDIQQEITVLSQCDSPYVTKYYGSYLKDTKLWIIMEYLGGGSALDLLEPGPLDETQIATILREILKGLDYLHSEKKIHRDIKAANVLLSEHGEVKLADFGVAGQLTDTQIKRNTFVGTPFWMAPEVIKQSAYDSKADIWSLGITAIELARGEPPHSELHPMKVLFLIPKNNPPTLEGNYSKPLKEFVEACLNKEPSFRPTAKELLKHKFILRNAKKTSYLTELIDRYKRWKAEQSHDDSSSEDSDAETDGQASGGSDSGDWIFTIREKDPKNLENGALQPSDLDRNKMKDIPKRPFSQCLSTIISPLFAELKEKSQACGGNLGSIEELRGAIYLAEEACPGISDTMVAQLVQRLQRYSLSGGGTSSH

`C[C@@H](c1ccccc1)n1nnc2cnc3ccc(-c4cnc5[nH]ccc5c4)cc3c21` was tested, and the Activity (Mus musculus) was -1%, the Activity [1] was 17% and the Activity [2] was 92%. The Activity [3] was 79%, the Activity [4] was 56% and the Activity [5] was 96%. The Activity [6] was 103%, the Activity [7] was 66% and the Activity [8] was 110%. For the same compound, the Activity [9] was 86%, the Activity [10] was 91% and the Activity [11] was 107%. For the same compound, the Activity [12] was 55%, the Activity [13] was 90% and the Activity [14] was 53%. For the same compound, the Activity [15] was 93%, the Activity [16] was 113% and the Activity [17] was 91%. It also gave an Activity [18] of 97%, an Activity [19] of 50% and an Activity [20] of 73 to 83%. The Activity [21] was 83%.
